Data on 2 compounds can be found in patent publication US20070224167A1, “Novel HCV inhibitor combinations and methods” (priority 2006, published 2007).

In one experiment the test system is HCV 1b BB7 replicon. Description: Intracellular antiviral activity in HCV replicon, genotype 1b. It is filed as cell-based, HCV genotype 1b. The conditions noted are these: for EC50: Hepatitis C virus, 72 h, read-out: HCV RNA EC50. How it is done: HCV genotype 1b, BB7 replicon-containing cell line is derived from a human hepatoma cell line (Huh7). A genotype 1a (H77 isolate; GenBank Accession #AF009606) is derived from replicon-containing cell line (Huh7-1a). The cell lines are cultured at 37° C. and 5% CO2 in Dulbecco's Modified Eagle Media (D-MEM; Invitrogen #11965-084) containing 10% fetal bovine serum (FBS; HyClone #SH300070) supplemented with 1% penicillin/streptomycin (Invitrogen #15140-122), 1% non-essential amino acids (Invitrogen #11140-050), 0.66 mM HEPES buffer, pH 7.55 (Invitrogen #15630-080), and 1 mg/mL G418 (Geneticin®, Invitrogen #11811-031 or #10131-027). Genotype 1a and genotype 1b replicon-containing cell lines contain approximately 1000 and 2000 RNA genome equivalents per cell, respectively, when maintained in a subconfluent monolayer in the presence of 1 mg/mL G418. For compound testing, G418 is eliminated and the FBS concentration is reduced to 2%.
At the end of the incubation period, the replicon-containing cells are lysed in 150 μL of lysis buffer provided in the RNeasy 96 Kit (Qiagen #74181). Total cellular RNA is extracted according to the manufacturer's protocol and eluted in 150 μL of nuclease-free water. […] For duplexed RT-PCR quantifying both HCV RNA and 18S rRNA, 0.08 μM rRNA forward primer, 0.1 μM rRNA reverse primer, and 0.2 μM rRNA probe are added (ABI #4308329). […]
The amounts of the HCV and 18S ribosomal RNAs in each sample are estimated by comparing the Ct cycles with those in the corresponding standard curves. […] The total RNA that is used for preparing the standard curve of the rRNA is quantified by O.D.260 measurement. Compound dose response is measured in a 10-point, 3-fold serial dilution series performed in triplicates and subjected to the same corresponding RT-PCR conditions as described above. […] The amounts of HCV are expressed as HCV RNA copies and μg total RNA using rRNA as the surrogate marker for the quantification. […]

Experiment [1] concerns replicons containing HCV NS3 protease mutations T54A, A156S, A156T, V170A. Description: HCV-796 cross-resistance study, 3-day replicon assay on replicons with NS3 protease resistance mutations. It is filed as cell-based. To be noted: V170A vs wild type. How it is done:
Replicon cells are seeded at ˜5000 cells/well in 96-well collagen I-coated Biocoat plates (Becton Dickinson). Twenty-four hrs post-seeding, inhibitors diluted in DMSO are added to replicon cells (Huh-7 cells). The final concentrations of DMSO and fetal bovine serum are 1% and 10%, respectively. SCH 503034 is serially diluted at 1:2 for a 10-point titration. To each concentration of the SCH 503034, the second inhibitor, HCV-796 or rhIFN-α2b control is titrated in. IFN-α is serially diluted at 1:3, whereas HCV RNA polymerase inhibitor, HCV-796, is serially diluted at 1:2. […] All samples are tested in triplicate. Media and inhibitors are refreshed daily for 3 days at which point the cells are washed with PBS and lysed in 1× cell lysis buffer (Ambion cat #8721). The replicon RNA level is measured using real time PCR (Taqman assay) The amplicon is located in 5B. The PCR primers are: 5B.2F, ATGGACAGGCGCCCTGA (SEQ ID NO:1) and 5B.2R, […] (SEQ ID NO:2). The probe sequence is FAM-labeled CACGCCATGCGCTGCGG (SEQ ID NO:3). GAPDH RNA is used as an endogenous control and is amplified in the same reaction as NS5B (multiplex PCR) using primers and VIC-labeled probe recommended by the manufacturer (PE Applied Biosystem). […]
(A replicon is a self-replicating genome or part of one, used to study replication in cells.)

Each structure is given as a SMILES string. Entries after “also recorded” stand apart in the source; their conditions may differ.

`CC(C)(C)NC(=O)N[C@H](C(=O)N1C[C@H]2[C@@H]([C@H]1C(=O)NC(CC1CCC1)C(=O)C(N)=O)C2(C)C)C(C)(C)C` (stereo partly drawn) [SCH 503034, (1R,5S)—N-[3-amino-1-(cyclobutylmethyl)-2,3-dioxopropyl]-3-[2(S)-[[[(1,1-dimethylethyl)amino]carbonyl]amino]-3,3-dimethyl-1-oxobutyl]-6,6-dimethyl-3-azabicyclo[3.1.0]hexan-2(S)-carboxamide]: the EC50 in the experiment on HCV 1b BB7 replicon worked out at 268 ± 29 nM. The “Difference in EC50, changing media daily vs. single dose in 3 days” value in the experiment on HCV 1b BB7 replicon (replicon, 3 days) is reported as “No difference in EC50”.

Turning to `CNC(=O)c1c(-c2ccc(F)cc2)oc2cc(N(CCO)S(C)(=O)=O)c(C3CC3)cc12` [HCV-796, 5-cyclopropyl-2-(4-fluoro-phenyl)-6-[(2-hydroxy-ethyl)-methanesulfonyl-amino]-benzofuran-3-carboxylic acid methylamide], in experiment [1], the “Activity of HCV-796 on SCH 503034 resistant replicon cell lines” value is “identical to that observed against the wild-type replicon; also recorded: active”. In addition, the EC50 in the experiment with HCV 1b BB7 replicon stood at 1.1 ± 0.2 nM.

Usually EC50 stands for the concentration that produces a half-maximal response.
